Experimental data published in ChEMBL document CHEMBL5550142, “From lab to nature: Recent advancements in the journey of gastroprotective agents from medicinal chemistry to phytotherapy” (Eur J Med Chem, 2024).
Values after ≈ are worked out from the molar mass of the structure shown.

Legend:
Helicobacter pylori [1] = assay: Antibacterial activity against Helicobacter pylori ATCC 43504 assessed as reduction in bacterial growth incubated for 24 hrs by broth micro-dilution method; assay type: functional
Helicobacter pylori [2] = assay: Antibacterial activity against Helicobacter pylori NCTC 11637 assessed as reduction in bacterial growth incubated for 24 hrs by broth micro-dilution method; assay type: functional
Rattus norvegicus [3] = assay: Protection against stress-induced Wistar rat model assessed as inhibition of gastric lesion at 500 ug/kg, po measured after 6 hrs relative to control; assay type: functional; design: scale not given: the % may be the effect or the level left
[4] = Acute toxicity in po dosed mouse assessed as lethal dose; assay type: organism-based; conditions: in vivo
Rattus norvegicus [5] = assay: Gastric ulcerogenic activity in ethanol-induced rat model assessed as reduction in gastric lesion at 5 mg/kg, po relative to control; assay type: functional; design: scale not given: the % may be the effect or the level left
Rattus norvegicus [6] = assay: Gastric ulcerogenic activity in ethanol-induced rat model assessed as reduction in gastric lesion at 10 mg/kg, po relative to control; assay type: functional; design: scale not given: the % may be the effect or the level left
[7] = molecular target: T1, Polyunsaturated fatty acid lipoxygenase ALOX15 (Homo sapiens, UniProt P16050); assay: Inhibition of 15-LOX (unknown origin)
T1 sequence (P16050 whole entry): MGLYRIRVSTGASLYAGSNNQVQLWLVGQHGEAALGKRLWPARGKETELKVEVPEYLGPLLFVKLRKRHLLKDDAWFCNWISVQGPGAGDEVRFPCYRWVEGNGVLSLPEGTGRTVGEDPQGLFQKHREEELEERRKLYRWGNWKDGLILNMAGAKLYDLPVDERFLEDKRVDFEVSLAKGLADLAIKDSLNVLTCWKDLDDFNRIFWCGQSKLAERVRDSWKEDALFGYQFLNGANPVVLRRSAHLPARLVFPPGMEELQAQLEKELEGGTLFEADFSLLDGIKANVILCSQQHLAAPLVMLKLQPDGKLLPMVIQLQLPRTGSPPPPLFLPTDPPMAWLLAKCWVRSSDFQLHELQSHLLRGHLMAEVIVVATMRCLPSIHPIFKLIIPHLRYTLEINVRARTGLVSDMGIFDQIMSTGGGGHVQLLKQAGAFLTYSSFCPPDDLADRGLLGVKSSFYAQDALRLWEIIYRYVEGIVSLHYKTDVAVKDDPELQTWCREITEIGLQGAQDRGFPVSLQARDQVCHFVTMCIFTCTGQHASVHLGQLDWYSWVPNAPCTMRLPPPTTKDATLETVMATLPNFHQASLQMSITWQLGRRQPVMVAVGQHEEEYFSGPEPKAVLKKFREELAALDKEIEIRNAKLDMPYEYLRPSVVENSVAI

[8] = Inhibition of Hydrogen potassium ATPase (unknown origin); design: species or system Homo sapiens
[9] = molecular target: T2, Gastrin/cholecystokinin type B receptor (Homo sapiens, UniProt P32239); assay: Antagonist activity at human CCKBR; assay type: functional
T2 sequence (P32239 whole entry): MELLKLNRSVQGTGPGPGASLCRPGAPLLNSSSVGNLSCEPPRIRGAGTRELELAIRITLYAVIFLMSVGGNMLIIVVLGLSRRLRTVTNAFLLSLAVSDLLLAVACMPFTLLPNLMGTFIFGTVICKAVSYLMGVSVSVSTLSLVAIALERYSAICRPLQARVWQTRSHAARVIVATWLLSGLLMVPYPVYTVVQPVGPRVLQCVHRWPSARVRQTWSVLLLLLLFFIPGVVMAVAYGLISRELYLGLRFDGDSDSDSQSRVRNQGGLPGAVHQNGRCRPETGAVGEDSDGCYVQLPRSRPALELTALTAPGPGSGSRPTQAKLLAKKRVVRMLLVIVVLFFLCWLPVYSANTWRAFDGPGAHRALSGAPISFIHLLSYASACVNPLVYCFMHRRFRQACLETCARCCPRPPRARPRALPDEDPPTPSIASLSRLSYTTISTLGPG

Mus musculus = assay: Anti-ulcerogenic activity in ethanol-induced gastric ulcer mouse model assessed as reduction in ulcer formation at 350 mg/kg; assay type: functional; design: scale not given: the % may be the effect or the level left
Rattus norvegicus [10] = assay: Gastric ulcerogenic activity in ethanol-induced rat model assessed as reduction in mucosal damage at 50 mg/kg, po relative to control; assay type: functional; design: scale not given: the % may be the effect or the level left

Question: Which results are given for C=CCS[S+]([O-])CC=C (stereo unspecified) [ALLICIN]?
Answer: MIC (Helicobacter pylori [1]): 6 µg/mL (≈ 37 µM); MIC (Helicobacter pylori [2]): 4 µg/mL (≈ 24.6 µM)

Question: Which Activity (Rattus norvegicus [3]) does the source give for O=C(CSc1nc2ccccc2[nH]1)n1nc(Nc2ccc(O)cc2)cc1-c1ccccc1 here?
Answer: 83.1%

Question: With COc1cc(/C=N/NC(=O)Cc2ccccc2Nc2c(Cl)cccc2Cl)cc(OC)c1O as the compound, how does the LD50 [4] read?
Answer: 168 mg/kg

Question: Which Activity (Rattus norvegicus [5]) does the source give for CCc1c(O)c(O)c2c(c1O)C(=O)C(O)=C(O)C2=O here?
Answer: 73.51%

Question: And the Activity (Rattus norvegicus [6])?
Answer: 75.5%

Question: Which IC50 [7] does the source give for Clc1ccc(-c2cc(-c3ccco3)no2)c(Cl)c1 here?
Answer: 8.15 µM

Question: And the IC50 [8]?
Answer: 42.41 µg/mL (≈ 151 µM)

Question: With CCCc1ccc([C@H]2N[C@@H](C(=O)OC)Cc3c2[nH]c2ccccc32)cc1 as the compound, how does the IC50 [9] read?
Answer: 31.9 µM

Question: And the Activity (Mus musculus)?
Answer: 81.2%

Question: What about the Activity (Rattus norvegicus [10]) of the same compound?
Answer: 81.2%
